According to ChEMBL document CHEMBL5257097, “An Isomer of Galidesivir That Potently Inhibits Influenza Viruses and Members of the Bunyavirales Order” (ACS Med Chem Lett, 2023):
pEC50: −log10 of the molar value.

Key:
[1] = system: dengue virus type 2; experiment: Antiviral activity against DENV-2 infected in African green monkey Vero cells assessed as reduction in virus-induced cytopathic effect measured after 15 to 30 mins by visual analysis; format: functional, organism-based
[2] = system: dengue virus type 2; experiment: Antiviral activity against DENV-2 infected in African green monkey Vero cells assessed as reduction in virus-induced cytopathic effect measured after 15 to 30 mins by neutral red based analysis; format: functional, organism-based
[3] = Cytotoxicity against African green monkey Vero cells infected with DENV-2 assessed as reduction in cell viability by visual assay; format: toxicity, cell-based; details: chlorocebus sabaeus
[4] = Cytotoxicity against African green monkey Vero cells infected with DENV-2 assessed as reduction in cell viability by neutral red dye based assay; format: toxicity; details: chlorocebus sabaeus
[5] = (§1) Selectivity index, ratio of CC50 for cytotoxicity against African green monkey Vero cells infected with DENV-2 assessed as reduction in cell viability by visual analysis to EC50 for antiviral activity against DENV-2 infected in human Huh-7 cells assessed as reduction in virus-induced cytopathic effect by visual analysis; format: toxicity, cell-based; details: read-out: Ratio CC50/EC50
[6] = as §1, with “neutral red” for “visual”; format: toxicity, cell-based; details: read-out: Ratio CC50/EC50
[7] = system: Yellow fever virus; experiment: Antiviral activity against Yellow fever virus infected in human Huh-7 cells assessed as reduction in virus-induced cytopathic effect measured after 15 to 30 mins by visual analysis; format: functional, organism-based; details: huh-7
[8] = system: Zika virus; experiment: Antiviral activity against Zika virus infected in African green monkey Vero 76 cells assessed as reduction in virus-induced cytopathic effect measured after 15 to 30 mins by visual analysis; format: functional, organism-based
[9] = system: Zika virus; experiment: Antiviral activity against Zika virus infected in African green monkey Vero 76 cells assessed as reduction in virus-induced cytopathic effect measured after 15 to 30 mins by neutral red based spectrophotometric analysis; format: functional, organism-based
[10] = Cytotoxicity against African green monkey Vero 76 cells infected with Zika virus assessed as reduction in cell viability by visual analysis; format: toxicity, cell-based; details: chlorocebus sabaeus
[11] = Cytotoxicity against African green monkey Vero 76 cells infected with Zika virus assessed as reduction in cell viability by neutral red dye based assay; format: toxicity; details: chlorocebus sabaeus
[12] = as §1, with “Vero 76” for “Vero cells”, “with Zika virus” for “with DENV-2”, “against Zika virus” for “against DENV-2”, “in African green monkey Vero 76” for “in human Huh-7”; format: toxicity, cell-based; details: Vero 76 cells infected with Zika virus, read-out: Ratio CC50/EC50
[13] = Selectivity index, ratio of CC50 for cytotoxicity against African green monkey Vero 76 cells infected with Zika virus assessed as reduction in cell viability by neutral red dye based analysis to EC50 for antiviral activity against Zika virus infected in African green monkey Vero 76 cells assessed as reduction in virus-induced cytopathic effect by neutral red based spectrophotometric analysis; format: toxicity; details: read-out: Ratio CC50/EC50
[14] = system: Influenza A virus; experiment: Antiviral activity against Influenza A virus H1N1 infected in dog MDCK cells assessed as reduction in virus-induced cytopathic effect measured after 15 to 30 mins by visual analysis; format: functional, organism-based
[15] = system: Influenza A virus; experiment: Antiviral activity against Influenza A virus H1N1 infected in dog MDCK cells assessed as reduction in virus-induced cytopathic effect measured after 15 to 30 mins by neutral red based analysis; format: functional, organism-based
[16] = Cytotoxicity against dog MDCK cells infected with Influenza A virus H1N1 assessed as reduction in cell viability by visual analysis; format: toxicity, cell-based, Canis lupus familiaris
[17] = Cytotoxicity against dog MDCK cells infected with Influenza A virus H1N1 assessed as reduction in cell viability by neutral red dye based assay; format: toxicity, Canis lupus familiaris
[18] = system: Middle East respiratory syndrome-related coronavirus; experiment: Antiviral activity against MERS-CoV infected in vervet monkey MA-104 cells assessed as reduction in virus-induced cytopathic effect measured after 15 to 30 mins by visual analysis; format: functional, organism-based; details: MA104
[19] = system: Middle East respiratory syndrome-related coronavirus; experiment: Antiviral activity against MERS-CoV infected in vervet monkey MA-104 cells assessed as reduction in virus-induced cytopathic effect measured after 15 to 30 mins by neutral red dye based assay; format: functional, organism-based; details: MA104
[20] = Cytotoxicity against vervet monkey MA-104 cells infected with MERS-CoV assessed as reduction in cell viability by visual assay; format: toxicity, cell-based; details: cercopithecus pygerythrus
[21] = Cytotoxicity against vervet monkey MA-104 cells infected with MERS-CoV assessed as reduction in cell viability by neutral red dye based assay; format: toxicity; details: cercopithecus pygerythrus
[22] = as §1, with “Vero 76” for “Vero”, “MERS-CoV” for “DENV-2”, “African green monkey Vero 76” for “human Huh-7”; format: toxicity, cell-based; details: read-out: Ratio CC50/EC50
[23] = Selectivity index, ratio of CC50 for cytotoxicity against African green monkey Vero 76 cells infected with MERS-CoV assessed as reduction in cell viability by neutral red dye based analysis to EC50 for antiviral activity against MERS-CoV infected in African green monkey Vero 76 cells assessed as reduction in virus-induced cytopathic effect by neutral red dye based analysis; format: toxicity; details: read-out: Ratio CC50/EC50
[24] = system: Rift Valley fever virus; experiment: Antiviral activity against Rift valley fever virus infected in African green monkey Vero 76 cells assessed as reduction in virus-induced cytopathic effect measured after 15 to 30 mins by visual analysis; format: functional, organism-based
[25] = Cytotoxicity against African green monkey Vero 76 cells infected with Rift valley fever virus assessed as reduction in cell viability by visual analysis; format: toxicity, cell-based; details: chlorocebus sabaeus
[26] = system: Rift Valley fever virus; experiment: Antiviral activity against Rift valley fever virus infected in African green monkey Vero 76 cells assessed as reduction in virus-induced cytopathic effect measured after 15 to 30 mins by neutral red dye based analysis; format: functional, organism-based
[27] = Cytotoxicity against African green monkey Vero 76 cells infected with Rift valley fever virus assessed as reduction in cell viability by neutral red dye based analysis; format: toxicity; details: chlorocebus sabaeus
[28] = as §1, with “Vero 76” for “Vero”, “Rift valley fever virus” for “DENV-2”, “African green monkey Vero 76” for “human Huh-7”; format: toxicity, cell-based; details: read-out: Ratio CC50/EC50
[29] = Selectivity index, ratio of CC50 for cytotoxicity against African green monkey Vero 76 cells infected with Rift valley fever virus assessed as reduction in cell viability by neutral red dye based analysis to EC50 for antiviral activity against Rift valley fever virus infected in African green monkey Vero 76 cells assessed as reduction in virus-induced cytopathic effect by neutral red dye based analysis; format: toxicity; details: read-out: Ratio CC50/EC50
[30] = system: dengue virus type 2; experiment: Antiviral activity against DENV-2 infected in human Huh-7 cells assessed as reduction in virus-induced cytopathic effect measured after 15 to 30 mins by neutral red based analysis; format: functional, organism-based
[31] = system: Huh-7; experiment: Cytotoxicity against human Huh-7 cells infected with DENV-2 assessed as reduction in cell viability by visual analysis; format: functional
[32] = system: Yellow fever virus; experiment: Antiviral activity against Yellow fever virus infected in human Huh-7 cells assessed as reduction in virus-induced cytopathic effect measured after 15 to 30 mins by neutral red based analysis; format: functional, organism-based
[33] = system: Huh-7; experiment: Cytotoxicity against human Huh-7 cells infected with Yellow fever virus assessed as reduction in cell viability by visual assay; format: functional
[34] = system: Middle East respiratory syndrome-related coronavirus; experiment: Antiviral activity against MERS-CoV infected in African green monkey Vero 76 cells assessed as reduction in virus-induced cytopathic effect measured after 15 to 30 mins by neutral red dye based analysis; format: functional, organism-based
[35] = Cytotoxicity against African green monkey Vero 76 cells infected with MERS-CoV assessed as reduction in cell viability by neutral red dye based analysis; format: toxicity; details: chlorocebus sabaeus
[36] = Selectivity index, ratio of CC50 for cytotoxicity against human Huh-7 cells infected with Yellow fever virus assessed as reduction in cell viability by neutral red dye based assay to EC50 for antiviral activity against Yellow fever virus infected in human Huh-7 cells assessed as reduction in virus-induced cytopathic effect by neutral red based analysis; format: toxicity; details: read-out: Ratio CC50/EC50
[37] = Selectivity index, ratio of CC50 for cytotoxicity against dog MDCK cells infected with Influenza A virus H1N1 assessed as reduction in cell viability by neutral red dye based analysis to EC50 for antiviral activity against Influenza A virus H1N1 infected in dog MDCK cells assessed as reduction in virus-induced cytopathic effect by neutral red dye based analysis; format: toxicity; details: read-out: Ratio CC50/EC50
[38] = system: Influenza A virus; experiment: Antiviral activity against Influenza A virus H3N2 infected in dog MDCK cells; format: functional, organism-based
[39] = system: Influenza A virus; experiment: Antiviral activity against Influenza A virus H1N1 infected in dog MDCK cells; format: functional, organism-based
[40] = system: Influenza A virus; experiment: Antiviral activity against Influenza A virus H7N9 infected in dog MDCK cells; format: functional, organism-based
[41] = system: Influenza B virus; experiment: Antiviral activity against Influenza B virus infected in dog MDCK cells
[42] = Cytotoxicity against dog MDCK cells infected with Influenza A virus H1N1; format: toxicity, cell-based, Canis lupus familiaris
[43] = Cytotoxicity against dog MDCK cells infected with Influenza A virus H3N2; format: toxicity, cell-based, Canis lupus familiaris
[44] = Cytotoxicity against dog MDCK cells infected with Influenza B virus; format: toxicity, cell-based, Canis lupus familiaris

## Nc1ncnc2c([C@@H]3N[C@H](CO)[C@@H](O)[C@H]3O)n[nH]c12
[1]
  pEC50: 5.49
[2]
  pEC50: 5.55
[3]
  CC50: > 100 µM
[4]
  CC50: 2.8 µM
[5]
  selectivity ratio: 3.1
[6]
  selectivity ratio: 3.5
[7]
  EC50: Not Active
[8]
  pEC50: 4.49
[9]
  pEC50: 4.92
[10]
  CC50: 100 µM
[11]
  CC50: 13 µM
[12]
  selectivity ratio: 3.1
[13]
  selectivity ratio: 1.1
[14]
  pEC50: < 4.00
[15]
  pEC50: < 4.00
[16]
  CC50: > 100 µM
[17]
  CC50: > 100 µM
[18]
  pEC50: 5.07
[19]
  pEC50: 5.00
[20]
  CC50: 42 µM
[21]
  CC50: 45 µM
[22]
  selectivity ratio: 4.9
[23]
  selectivity ratio: 4.5
[24]
  pEC50: 5.38
[25]
  CC50: 8.3 µM
[26]
  pEC50: 5.38
[27]
  CC50: > 100 µM
[28]
  selectivity ratio: 8.3
[29]
  selectivity ratio: 7.6

## CC(C)OC(=O)[C@H](C)N[P@](=O)(OC[C@H]1N[C@@H](c2c[nH]c3c(N)ncnc23)[C@H](O)[C@@H]1O)Oc1ccccc1
[30]
  pEC50: < 4.00
[31]
  CC50: > 100 µM
[32]
  pEC50: < 4.00
[33]
  CC50: > 100 µM
[15]
  pEC50: < 4.00
[17]
  CC50: > 100 µM
[34]
  pEC50: < 4.00
[35]
  CC50: > 100 µM
[26]
  pEC50: < 4.00
[27]
  CC50: > 100 µM

## CC(C)OC(=O)[C@H](C)N[P@](=O)(OC[C@H]1N[C@@H](c2ccc3c(N)ncnn23)[C@H](O)[C@@H]1O)Oc1ccccc1
[30]
  pEC50: 5.96
[31]
  CC50: 9.9 µM
[32]
  pEC50: 5.44
[33]
  CC50: 9.9 µM
[36]
  selectivity ratio: 9
[15]
  pEC50: 5.33
[17]
  CC50: > 32 µM
[37]
  selectivity ratio: > 6.8
[34]
  pEC50: 4.89
[35]
  CC50: 68 µM
[23]
  selectivity ratio: 5.2
[26]
  pEC50: 6.00
[27]
  CC50: > 32 µM
[29]
  selectivity ratio: > 32

## NC(=O)c1ncn([C@@H]2O[C@H](CO)[C@@H](O)[C@H]2O)n1 [RIBAVIRIN]
[38]
  pEC50: 5.72
[39]
  pEC50: 5.72
[40]
  pEC50: 5.00
[41]
  pEC50: 5.72
[42]
  CC50: > 1000 µM
[43]
  CC50: > 1000 µM
[44]
  CC50: > 1000 µM
